Key:
[1] = system: TNBCs and their metastases; assay: Stopping the growth of TNBCs and their metastases; conditions: statement in words, no data shown
[2] = Ability to cross the blood-brain-barrier; conditions: statement in words, no data shown

SMILES: COc1ccc(C(CCCCNC(=O)Nc2ccc(Cl)c([N+](=O)[O-])c2)c2ccc(OC)cc2)cc1 [1-(5,5-bis(4-methoxyphenyl)pentyl)-3-(4-chloro-3-nitrophenyl)urea]
- stopping the growth of TNBCs and their metastases [1]: effective in stopping the growth of TNBCs and their metastases
- ability to cross the blood-brain-barrier (BBB) [2]: shows the ability to cross the blood-brain-barrier

From patent US12338204B2, “Substituted bisphenylalkylurea compounds and methods of treating breast cancer” (Texas Tech University System, priority 2018, dated 2025)
